Measurements published in the NIST ThermoML archive (doi:10.1021/je0496140).

Assay: xn = mol fraction of the nth substance listed
Conditions: 101.33 kPa, Liquid

CCCCCl [1-chlorobutane] + CC(C)(C)O
Conditions | mass density [kg/m3] | viscosity [mPa·s]
298.15 K, x2 = 0.0966 | – | 0.442
298.15 K, x2 = 0.2 | – | 0.476
298.15 K, x2 = 0.2904 | – | 0.517
298.15 K, x2 = 0.3901 | – | 0.577
298.15 K, x2 = 0.4897 | – | 0.662
298.15 K, x2 = 0.5956 | – | 0.799
298.15 K, x2 = 0.6919 | – | 1
298.15 K, x2 = 0.8008 | – | 1.425
298.15 K, x2 = 0.8889 | – | 2.112
303.15 K, x2 = 0.0924 | 864.09 | –
303.15 K, x2 = 0.0966 | – | 0.419
303.15 K, x2 = 0.1915 | 853.49 | –
303.15 K, x2 = 0.2 | – | 0.449
303.15 K, x2 = 0.2758 | 844.75 | –
303.15 K, x2 = 0.2904 | – | 0.486
303.15 K, x2 = 0.38 | 834.23 | –
303.15 K, x2 = 0.3901 | – | 0.537
303.15 K, x2 = 0.481 | 824.02 | –
303.15 K, x2 = 0.4897 | – | 0.611
303.15 K, x2 = 0.5729 | 814.91 | –
303.15 K, x2 = 0.5956 | – | 0.727
303.15 K, x2 = 0.6749 | 804.89 | –
303.15 K, x2 = 0.6919 | – | 0.892
303.15 K, x2 = 0.7778 | 795.09 | –
303.15 K, x2 = 0.8008 | – | 1.232
303.15 K, x2 = 0.8889 | – | 1.752
303.15 K, x2 = 0.8938 | 784.46 | –
308.15 K, x2 = 0.0966 | – | 0.397
308.15 K, x2 = 0.0969 | 857.96 | –
308.15 K, x2 = 0.1912 | 847.87 | –
308.15 K, x2 = 0.2 | – | 0.423
308.15 K, x2 = 0.2786 | 838.9 | –
308.15 K, x2 = 0.2904 | – | 0.456
308.15 K, x2 = 0.3839 | 828.23 | –
308.15 K, x2 = 0.3901 | – | 0.502
308.15 K, x2 = 0.4811 | 818.5 | –
308.15 K, x2 = 0.4897 | – | 0.565
308.15 K, x2 = 0.5844 | 808.35 | –
308.15 K, x2 = 0.5956 | – | 0.664
308.15 K, x2 = 0.6849 | 798.55 | –
308.15 K, x2 = 0.6919 | – | 0.801
308.15 K, x2 = 0.7881 | 788.78 | –
308.15 K, x2 = 0.8008 | – | 1.081
308.15 K, x2 = 0.8889 | – | 1.474
308.15 K, x2 = 0.8957 | 779.05 | –
313.15 K, x2 = 0.093 | 852.6 | –
313.15 K, x2 = 0.0966 | – | 0.378
313.15 K, x2 = 0.1869 | 842.51 | –
313.15 K, x2 = 0.2 | – | 0.4
313.15 K, x2 = 0.2685 | 834.13 | –
313.15 K, x2 = 0.2904 | – | 0.428
313.15 K, x2 = 0.3778 | 823.11 | –
313.15 K, x2 = 0.3901 | – | 0.468
313.15 K, x2 = 0.4841 | 812.56 | –
313.15 K, x2 = 0.4897 | – | 0.525
313.15 K, x2 = 0.5777 | 803.43 | –
313.15 K, x2 = 0.5956 | – | 0.608
313.15 K, x2 = 0.6796 | 793.58 | –
313.15 K, x2 = 0.6919 | – | 0.724
313.15 K, x2 = 0.7766 | 784.47 | –
313.15 K, x2 = 0.8008 | – | 0.947
313.15 K, x2 = 0.8889 | – | 1.255
313.15 K, x2 = 0.8972 | 773.57 | –
318.15 K, x2 = 0.0918 | 847.04 | –
318.15 K, x2 = 0.0966 | – | 0.359
318.15 K, x2 = 0.1839 | 837.08 | –
318.15 K, x2 = 0.2 | – | 0.38
318.15 K, x2 = 0.2674 | 828.47 | –
318.15 K, x2 = 0.2904 | – | 0.404
318.15 K, x2 = 0.3797 | 817.22 | –
318.15 K, x2 = 0.3901 | – | 0.439
318.15 K, x2 = 0.4809 | 807.29 | –
318.15 K, x2 = 0.4897 | – | 0.488
318.15 K, x2 = 0.5799 | 797.62 | –
318.15 K, x2 = 0.5956 | – | 0.56
318.15 K, x2 = 0.678 | 788.38 | –
318.15 K, x2 = 0.6919 | – | 0.658
318.15 K, x2 = 0.7833 | 778.42 | –
318.15 K, x2 = 0.8008 | – | 0.841
318.15 K, x2 = 0.8889 | – | 1.083
318.15 K, x2 = 0.8905 | 768.84 | –
